Where two headings read alike, the source gives them in different places.
Legend:
[1] = target: T1, FLT3 (D835Y) (Homo sapiens, UniProt P36888, D835Y); assay: Kinase inhibition assay (Reaction Biology); type: biochemical
T1 construct: purchased Reaction Biology Corporation (PA, USA)

[2] = target: FLT3 (Homo sapiens, UniProt P36888); assay: FLT3 autophosphorylation by western blot in MV4-11 and MOLM13 cells; type: cell-based; conditions: 2 h, read-out: IC50 of inhibition of FLT3 autophosphorylation
Procedure: Western blot analysis was performed as previously described. AML cell lines, BaF3 transformed cell lines and human primary cells were treated with the indicated concentration of FLT3 inhibitors for 2 h. To examine the phosphorylation levels of FLT3-Y591 (Cat. #3464s), p44/42-Thr202/Tyr204 (Cat. #4370), whole-cell lysates were subjected to immunoblotting with the corresponding primary antibodies from Cell Signaling Technology (MA, USA). Anti-STAT5 (Cat. #a7733), anti-STAT5-Y694 (Cat. #ap0070), anti-ERK1/2 (Cat. #a1013), anti-AKT (Cat. #a7270), anti-AKT-Ser473 (Cat. #ap0098), anti-Caspase 3 (Cat. #a11021), anti-PARP1 (Cat. #a0010), anti-Bcl2 (Cat. #a19693), anti-Mcl-1 (Cat. #a0434), anti-Pim2 (Cat. #a9230), anti-Caspase8 (Cat. #a19549) and anti-FLT3 (Cat. #a12437) were purchased from ABclonal Company (Wuhan, China).
(A) Chemical structure of LT-171-861. […] Data were then fitted to obtain KD value. […] Data were first normalized by setting the highest and lowest value in each set to 100% and 0% respectively. Data were obtained in the presence of the LT-171-861 (blue circle) as positive the control and DMSO (red square) as the negative control. All experiments were performed at three independent occasions and data are given as the mean ± SD. […] Cell viability was evaluated by MTT assay respectively. The IC50 values were calculated using nonlinear regression.

[3] = target: T2, ERK1 (Homo sapiens, UniProt P27361); assay: Kinase inhibition assay (Reaction Biology); type: biochemical
T2 construct: purchased Reaction Biology Corporation (PA, USA)

[4] = target: T3, FLT3 (Homo sapiens, UniProt P36888); assay: Biolayer interferometry (BLI) binding assay; conditions: ForteBio Octet, 0.3 nM to 1000 nM
T3 construct: The intracellular domain of FLT3 (residues 571-994) was cloned into pMal-c2X; MBP (N); made in house; host or cells: E. coli BL21
Procedure: The intracellular domain of FLT3 (residues 571-994) was cloned into pMal-c2X containing an N-terminal MBP-tag with a TEV protease cleavage site. The recombinant vector was transformed into E. coli. BL21. Expression and purification of recombinant FLT3 were performed as described previously [25]-[27].
All studies were performed with the Super Streptavidin (SSA) biosensors (CA, USA). All binding experiments were performed according to the manufacturer's instructions. For the cellular thermal shift assay (CETSA), experiments were performed as described previously.
A concentration range from 0.3 nM to 1000 nM was defined (Figure 1B). […] CETSA has been used to identify FLT3-LT-171-861 interactions in live cell settings. […] We first verified that the inhibitor could stabilize FLT3 against denaturation using Western blot. […] An obvious thermal shift of the melting curve was detected in the LT-171-861-treated sample (Figure 1C). […] Accordingly, we identified 53 °C as the optimal temperature for isothermal […] fingerprint (ITDRF) CETSA.
(A) Chemical structure of LT-171-861. […] Data were then fitted to obtain KD value. […] Data were first normalized by setting the highest and lowest value in each set to 100% and 0% respectively. […] Cell viability was evaluated by MTT assay respectively. The IC50 values were calculated using nonlinear regression.

[5] = tested on: AML patient blasts expressing FLT3-ITD; assay: Viability of AML patient blasts (MTT); type: cell-based, human; conditions: 72 h, compared with AC220 and sorafenib
[6] = tested on: bone marrow mononuclear cells (BMMCs); assay: Apoptosis assay in normal bone marrow mononuclear cells; type: cell-based, C57BL/6 mice; conditions: 36 h
Procedure: (§1) Blue square and solid line represent intravenous injection administration. […] Mice were sacrificed at indicated time points and then tumor tissues were dissected and lysed. Phosphorylation levels of FLT3, STAT5 and ERK1/2 were measured by western blotting. (C) Bone marrow mononuclear cells (BMMCs) were isolated from healthy C57BL/6 mice. […] Apoptosis assays were conducted after 36-hour incubation. […] 24 h after the last administration, c-Kit^+ cells were evaluated by flow cytometry. […] Data were shown with mean±SD.
Then, we evaluated progenitor cell (c-Kit^+) lineages of bone marrow cells (Figure 4D), spleen or liver weights (Figure S2A), relative body weights (Figure S2B), and parameters of blood routine examination (Figure S2C).

[7] = target: T4, c-Src (Homo sapiens, UniProt P12931); assay: Kinase inhibition assay (Reaction Biology); type: biochemical
T4 construct: purchased Reaction Biology Corporation (PA, USA)

[8] = target: T5, FLT1/VEGFR1 (Homo sapiens, UniProt P17948); assay: Kinase inhibition assay (Reaction Biology); type: biochemical
T5 construct: purchased Reaction Biology Corporation (PA, USA)

[9] = tested on: BaF3-transfected cells (FLT3-ITD-N676D, FLT3-ITD-F691L); assay: Intravenous implantation of BaF3-transfected cells, survival; type: in vivo, BALB/c nude mice; conditions: 10 mg/kg once every other day, 8 cycles
Procedure: Data were shown as mean±SD. […] Data were shown as mean±SD. (C) An engrafted tumor model was used to evaluate in vivo antitumor activity. The NOD/SCID mice were intravenously inoculated with MV4-11 cells. […] Log-rank testing was used to compare survival curves among treatment groups. […] (D) Apoptotic assays in engraft model were evaluated by TUNEL assay and cell proliferative activity was measured by Ki67 assay. Images were acquired at ×40 magnification. (E) BALB/c nude mice were subcutaneously inoculated with MV4-11 cells (5×10^6) and bodyweight of each mouse was recorded every other day. (F) Representative photo of tumors from BALB/c nude mice which were inoculated with MV4-11 cells. (G) BALB/c nude mice were subcutaneously inoculated with BaF3 cells bearing FLT3-ITD-N676D (n=6) and FLT3-ITD-F691L (n=6) respectively. […] (H) BALB/c mice were intravenously inoculated with cells used in (G). […] Log-rank testing was used to compare survival curves among treatment groups. […] (I) Representative photos of spleens dissected from mice in (H) inoculated with BaF3 cells bearing FLT-3-ITD-F691L.
Cells were injected into the tail vein of BALB/c nude mice and allowed to engraft for 5 days. […] This schedule was repeated for 8 cycles.

[10] = target: T6, JAK1 (Homo sapiens, UniProt P23458); assay: Kinase inhibition assay (Reaction Biology); type: biochemical
T6 construct: purchased Reaction Biology Corporation (PA, USA)

[11] = tested on: FLT3; assay: PD study in subcutaneous MV4-11 xenograft mice; type: in vivo, BALB/c nude mice; conditions: single dose 10 mg/kg intravenous
Procedure: An MV4-11 cell tumor model was established by subcutaneous injection. Six-week-old female BALB/c nude mice were used for the subcutaneous model. […] Mice were sacrificed and tumor tissues were freshly dissected, homogenized, and centrifuged at 16000 g for 20 min. The phosphorylation levels of FLT3 were measured by Western blot.
as §1

T2 sequence (P27361 whole entry): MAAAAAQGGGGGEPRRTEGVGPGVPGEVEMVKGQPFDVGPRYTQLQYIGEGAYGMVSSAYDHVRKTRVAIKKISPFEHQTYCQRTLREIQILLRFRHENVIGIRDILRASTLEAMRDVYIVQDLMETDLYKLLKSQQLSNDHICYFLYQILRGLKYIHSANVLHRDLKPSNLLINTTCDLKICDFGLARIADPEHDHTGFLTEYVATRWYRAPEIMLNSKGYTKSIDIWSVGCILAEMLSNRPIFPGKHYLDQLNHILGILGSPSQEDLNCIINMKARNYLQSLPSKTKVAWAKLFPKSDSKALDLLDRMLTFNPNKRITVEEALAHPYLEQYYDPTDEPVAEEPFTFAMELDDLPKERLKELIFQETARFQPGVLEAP
T6 sequence (P23458 whole entry): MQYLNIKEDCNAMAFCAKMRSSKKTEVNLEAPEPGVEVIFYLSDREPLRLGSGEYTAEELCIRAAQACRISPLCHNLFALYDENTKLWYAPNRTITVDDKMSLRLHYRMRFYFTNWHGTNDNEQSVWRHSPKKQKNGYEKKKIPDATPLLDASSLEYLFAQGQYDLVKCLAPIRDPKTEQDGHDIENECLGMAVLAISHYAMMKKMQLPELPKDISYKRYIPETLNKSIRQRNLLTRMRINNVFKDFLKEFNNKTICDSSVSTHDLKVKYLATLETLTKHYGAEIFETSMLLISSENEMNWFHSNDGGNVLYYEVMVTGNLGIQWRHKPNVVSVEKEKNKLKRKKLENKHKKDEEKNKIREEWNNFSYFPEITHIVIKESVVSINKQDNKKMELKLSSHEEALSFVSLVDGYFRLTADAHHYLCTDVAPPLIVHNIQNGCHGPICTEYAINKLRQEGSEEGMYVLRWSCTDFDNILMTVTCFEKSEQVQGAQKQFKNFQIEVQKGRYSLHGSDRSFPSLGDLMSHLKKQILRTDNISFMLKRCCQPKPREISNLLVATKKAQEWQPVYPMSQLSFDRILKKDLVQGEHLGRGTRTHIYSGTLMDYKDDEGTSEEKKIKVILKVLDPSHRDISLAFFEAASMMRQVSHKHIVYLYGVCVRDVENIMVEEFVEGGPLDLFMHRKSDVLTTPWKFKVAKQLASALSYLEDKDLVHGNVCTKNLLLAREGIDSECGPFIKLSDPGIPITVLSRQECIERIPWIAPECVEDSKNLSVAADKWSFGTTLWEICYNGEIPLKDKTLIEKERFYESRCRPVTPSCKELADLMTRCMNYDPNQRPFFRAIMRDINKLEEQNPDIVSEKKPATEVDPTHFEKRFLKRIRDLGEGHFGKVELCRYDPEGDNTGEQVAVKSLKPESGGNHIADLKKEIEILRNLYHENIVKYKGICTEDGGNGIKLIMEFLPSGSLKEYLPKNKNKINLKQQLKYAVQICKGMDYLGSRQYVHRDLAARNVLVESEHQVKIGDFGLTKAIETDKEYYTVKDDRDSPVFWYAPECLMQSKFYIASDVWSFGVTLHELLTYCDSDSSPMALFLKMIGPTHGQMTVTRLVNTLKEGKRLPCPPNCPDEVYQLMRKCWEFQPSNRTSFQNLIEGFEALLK
T4 sequence (P12931 whole entry): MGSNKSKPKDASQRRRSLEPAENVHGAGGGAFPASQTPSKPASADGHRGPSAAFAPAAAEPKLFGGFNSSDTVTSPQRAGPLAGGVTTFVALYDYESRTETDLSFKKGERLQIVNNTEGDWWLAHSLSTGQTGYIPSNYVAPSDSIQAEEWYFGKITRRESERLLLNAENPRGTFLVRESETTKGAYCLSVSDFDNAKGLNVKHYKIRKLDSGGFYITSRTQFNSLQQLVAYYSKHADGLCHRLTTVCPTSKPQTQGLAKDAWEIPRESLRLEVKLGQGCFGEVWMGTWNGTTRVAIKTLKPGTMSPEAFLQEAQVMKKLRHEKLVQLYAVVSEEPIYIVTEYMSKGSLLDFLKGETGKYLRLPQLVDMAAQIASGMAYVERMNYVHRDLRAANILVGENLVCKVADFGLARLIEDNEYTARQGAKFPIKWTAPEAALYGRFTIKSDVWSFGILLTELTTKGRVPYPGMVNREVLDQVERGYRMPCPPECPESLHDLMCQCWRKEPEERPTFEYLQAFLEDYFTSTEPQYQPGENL
T5 sequence (P17948 27-1338): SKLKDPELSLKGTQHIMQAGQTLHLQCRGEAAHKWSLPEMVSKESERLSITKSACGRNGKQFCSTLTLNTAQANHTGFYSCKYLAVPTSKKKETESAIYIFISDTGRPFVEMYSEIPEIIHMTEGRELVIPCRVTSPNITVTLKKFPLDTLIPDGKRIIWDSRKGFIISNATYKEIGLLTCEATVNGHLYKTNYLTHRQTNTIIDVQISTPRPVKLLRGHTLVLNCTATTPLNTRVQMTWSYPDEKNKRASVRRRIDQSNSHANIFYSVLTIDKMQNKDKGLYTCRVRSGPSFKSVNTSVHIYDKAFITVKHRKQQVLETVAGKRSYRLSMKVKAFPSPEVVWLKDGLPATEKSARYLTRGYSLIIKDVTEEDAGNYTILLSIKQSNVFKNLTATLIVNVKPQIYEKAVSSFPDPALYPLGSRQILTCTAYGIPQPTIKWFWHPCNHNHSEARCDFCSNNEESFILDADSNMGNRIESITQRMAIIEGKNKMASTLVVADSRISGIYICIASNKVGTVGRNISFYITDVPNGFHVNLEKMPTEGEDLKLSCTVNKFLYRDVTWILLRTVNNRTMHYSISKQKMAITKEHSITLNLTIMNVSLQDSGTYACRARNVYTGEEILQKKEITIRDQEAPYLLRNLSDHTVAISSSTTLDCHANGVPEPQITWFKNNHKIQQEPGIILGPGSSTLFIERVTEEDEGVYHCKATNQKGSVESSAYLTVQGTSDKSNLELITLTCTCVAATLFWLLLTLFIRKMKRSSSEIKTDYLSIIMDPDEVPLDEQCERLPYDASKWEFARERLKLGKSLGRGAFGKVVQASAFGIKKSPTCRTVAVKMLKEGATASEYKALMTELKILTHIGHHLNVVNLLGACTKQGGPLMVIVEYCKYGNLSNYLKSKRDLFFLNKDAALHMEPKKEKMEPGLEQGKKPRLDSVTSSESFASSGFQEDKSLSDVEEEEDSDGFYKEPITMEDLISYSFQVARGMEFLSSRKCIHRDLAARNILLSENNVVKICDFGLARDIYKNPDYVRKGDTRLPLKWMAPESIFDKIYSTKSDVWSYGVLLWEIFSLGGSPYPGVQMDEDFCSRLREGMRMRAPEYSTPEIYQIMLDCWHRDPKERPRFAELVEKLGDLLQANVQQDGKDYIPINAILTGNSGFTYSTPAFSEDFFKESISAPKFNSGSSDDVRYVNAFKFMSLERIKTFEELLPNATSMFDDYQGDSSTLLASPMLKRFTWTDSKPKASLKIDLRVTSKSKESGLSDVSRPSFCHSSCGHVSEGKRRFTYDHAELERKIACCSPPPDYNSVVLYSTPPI

CN1CCN(Cc2ccc(NC(=O)c3n[nH]cc3Nc3ncnc4[nH]ccc34)cc2)CC1 [LT-171-861]
IC50 [1]: < 1 nM | IC50 ([1]; 10 μM ATP, 10-dose IC50 mode): 0.132 nM | IC50 [2]: ≤ 40 nM | IC50 [3]: > 200 nM | IC50 ([3]; 10 μM ATP, 10-dose IC50 mode): 1060 nM | Kd [4]: 3.31 nM | antileukemic activity in blasts with FLT3-ITD mutations [5]: comparable antileukemic activity | toxicity in normal BMMCs [6]: hypotoxicity | IC50 [7]: 72 nM | IC50 [8]: 5.6 nM | survival versus vehicle [9]: significant survival advantage | IC50 [10]: 55 nM | duration of inhibition of FLT3 autophosphorylation and downstream effectors [11]: 24 h | inhibition of p-FLT3, p-STAT5 and p-ERK1/2 in tumor ([11]; western blot): sustained inhibition

— paper PMC7681098 (Theranostics, 2021)
